Test system: Gli36ΔEGFR tumours-bearing nude mice
Experiment: PET/CT in vivo biodistribution and tumour uptake in orthotopic Gli36ΔEGFR glioma model
Settings: n = 3; for Bone (SUV mean) / Brain (SUV mean) / Colon (SUV mean) / Gall bladder (SUV mean) / Heart (SUV mean) / Kidney (SUV mean) / Liver (SUV mean) / Lung (SUV mean) / Muscle (SUV mean) / Salivary gland (SUV mean) / Small instestine (SUV mean): Gli36ΔEGFR female nude mice, i.v., PET/CT; for tumour-to-contralateral healthy brain ratio (tumour SUV max/contralateral SUV mean): Gli36ΔEGFR orthotopic glioma, nude mice
Protocol: Subsequently, we evaluated the uptake of [^18F]F-PSMA-617-NODA ([^18F]1) and [^18F]F-PSMA-617-RESCA ([^18F]2) in an orthotopic glioma model obtained with Gli36ΔEGFR cells in female nude mice. Gli36ΔEGFR tumours-bearing nude mice (n = 3) were injected i.v. with either [^18F]F-PSMA-617-NODA or [^18F]F-PSMA-617-RESCA (~ 3.8 MBq/mouse, ~ 50 pmol for [^18F]1 and ~ 170 pmol [^18F]2). Radiotracer uptake was assessed after 10, 60 and 120 min post injection by whole-body PET/CT acquisitions. Also in nude female mice, a rapid clearance of [^18F]1 in all organs and the same kinetic observed in NSG male mice (Additional file 1: S71A and B) were confirmed. […] It is interesting to note that the uptake of [^18F]1 in kidneys decreased over time in both models (Additional file 1: S71A and B), while the uptake of [^18F]F-PSMA-1007 in NSG model and [^18F]2 in nude female mice model increased (Additional file 1: S71C and D).
Total body biodistribution of [^18F]F-PSMA-1007, [^18F]F-PSMA-617-NODA and [^18F]F-PSMA-617-RESCA was evaluated in vivo using imaging PET/CT. [^18F]F-PSMA-617-NODA uptake was compared to that of the [^18F]F-PSMA-1007 in a PSMA positive prostate tumour xenograft model (LNCaP). [^18F]F-PSMA-617-NODA and [^18F]F-PSMA-617-RESCA uptake were also evaluated using an orthotopic glioma model (Gli36ΔEGFR).
5 × 10^5 Gli36ΔEGFR cells were injected in the right striatum of seven to eight weeks old female nude mice (Envigo RMS s.r.l., Italy) as previously described (Valtorta et al. [2021]). Ten days after mice underwent a T2-weighted Magnetic Resonance Imaging (MRI) using a 7 T small animal magnetic resonance scanner (Bruker, BioSpec 70/30 USR, Paravision 5.1, Germany) to confirm the growth of the tumour. Then, the same mice underwent in vivo biodistribution of [^18F]F-PSMA-617-NODA and [^18F]F-PSMA-617-RESCA, on successive but non-consecutive days, using PET/CT.
Mice were injected into a tail vein with 3.8 ± 0.1 MBq of [^18F]F-PSMA-1007, 4.0 ± 0.2 MBq of [^18F]F-PSMA-617-NODA ([^18F]1) and 3.8 ± 0.1 MBq of [^18F]F-PSMA-617-RESCA ([^18F]2), respectively.
Total body PET/CT acquisitions were performed using PET/CT tomographs dedicated to small animals, X-ß-CUBE (Molecubes, Gent, Belgium) after 10, 60 and 120 min from tracer injection. Each acquisition lasted 30 min and mice were maintained anesthetized (4% isoflurane in induction and 2% in maintenance in air) during acquisition.
Image quantification analysis was performed with PMOD 4.105 software (Zurich, Switzerland). Volumes of interest (VOIs) were drawn on peripheral organs (tumour, thoracic muscle, heart, liver, kidney, salivary glands, lung, small intestine, colon, bone, gall bladder) and on the healthy brain using CT images. For the glioma model, PET/CT images were co-registered to MRI images and two different VOIs were defined: (1) a control VOI covering the healthy left striatum (volume 4 mm^3) was drawn on the axial MR images, adjusted on the other imaging planes and then copied on the PET images of each mouse; (2) a second glioma-covering VOI was drawn in the tumour-affected brain hemisphere and centered on mice lesions.
For quantification, Standardized Uptake Value (SUV) was calculated according to the formula:
SUV = organ concentration activity [MBq/g]/(injected activity [MBq]/animal weight [g]).
The data were expressed as standardized-uptake-values (SUVmean and SUVmax) and as tumour-to-muscle (T/M) and tumour-to-blood (T/B) ratio in PCa model and as tumour-to-contralateral (T/Cl) ratio in glioma model.

O=C(O)CCC(NC(=O)NC(CCCCNC(=O)C(Cc1ccc2ccccc2c1)NC(=O)C1CCC(CNC(=O)CCCN2CCN(CC(=O)O)CCN(CC(=O)O)CC2)CC1)C(=O)O)C(=O)O.[18F][Al] [[^18F]F-PSMA-617-NODA, (((S)-5-((S)-2-((1R,4S)-4-((4-(4,7-bis(carboxymethyl)-1,4,7-triazonan-1-yl)butanamido)methyl)cyclohexane-1-carboxamido)-3-(naphthalen-2-yl)propanamido)-1-carboxypentyl)carbamoyl)-L-glutamic acid [^18F] aluminium fluoride]
Bone (SUV mean) (10 min p.i.): 0.18 ± 0.09 | Brain (SUV mean) (10 min p.i.): 0.06 ± 0.01 | Colon (SUV mean) (10 min p.i.): 0.37 ± 0.08 | Gall bladder (SUV mean) (10 min p.i.): 0.33 ± 0.11 | Heart (SUV mean) (10 min p.i.): 0.26 ± 0.05 | Kidney (SUV mean) (10 min p.i.): 13.11 ± 1.60 | Liver (SUV mean) (10 min p.i.): 0.22 ± 0.01 | Lung (SUV mean) (10 min p.i.): 0.20 ± 0.04 | Muscle (SUV mean) (10 min p.i.): 0.14 ± 0.01 | Salivary gland (SUV mean) (10 min p.i.): 0.54 ± 0.17 | Small instestine (SUV mean) (10 min p.i.): 0.32 ± 0.05 | Bone (SUV mean) (60 min p.i.): 0.13 ± 0.08 | Brain (SUV mean) (60 min p.i.): 0.03 ± 0.01 | Colon (SUV mean) (60 min p.i.): 0.27 ± 0.13 | Gall bladder (SUV mean) (60 min p.i.): 0.10 ± 0.03 | Heart (SUV mean) (60 min p.i.): 0.10 ± 0.03 | Kidney (SUV mean) (60 min p.i.): 13.32 ± 2.23 | Liver (SUV mean) (60 min p.i.): 0.11 ± 0.01 | Lung (SUV mean) (60 min p.i.): 0.09 ± 0.04 | Muscle (SUV mean) (60 min p.i.): 0.07 ± 0.01 | Salivary gland (SUV mean) (60 min p.i.): 0.24 ± 0.09 | Small instestine (SUV mean) (60 min p.i.): 0.25 ± 0.06 | Bone (SUV mean) (120 min p.i.): 0.12 ± 0.09 | Brain (SUV mean) (120 min p.i.): 0.02 ± 0.01 | Colon (SUV mean) (120 min p.i.): 0.16 ± 0.03 | Gall bladder (SUV mean) (120 min p.i.): 0.04 ± 0.01 | Heart (SUV mean) (120 min p.i.): 0.04 ± 0.002 | Kidney (SUV mean) (120 min p.i.): 9.30 ± 3.60 | Liver (SUV mean) (120 min p.i.): 0.05 ± 0.01 | Lung (SUV mean) (120 min p.i.): 0.04 ± 0.01 | Muscle (SUV mean) (120 min p.i.): 0.03 ± 0.01 | Salivary gland (SUV mean) (120 min p.i.): 0.08 ± 0.04 | Small instestine (SUV mean) (120 min p.i.): 0.15 ± 0.06 | tumour-to-contralateral healthy brain ratio (tumour SUV max/contralateral SUV mean) (60 min p.i.): 7.75 ± 3.06 | tumour-to-contralateral healthy brain ratio (tumour SUV max/contralateral SUV mean) (120 min p.i.): 10.92 ± 3.56
